# Experimental data published in US8685371B2, “Agents for detecting and imaging cell death” (Cambridge Enterprise Limited, priority 2008, dated 2014).
# “And” between values parts separate entries of the source, which are not always exact repeats. Identical values can stand only once. Like-named read-outs stand apart in the source and are kept apart here.
# Key:
# Assay in all cases: Surface plasmon resonance (SPR) binding to phosphatidylserine-coated L1 chip
# [1] = biological target: T1, C2Am-AlxAF647: Rattus norvegicus synaptotagmin I C2A domain variant C2Am, S78C (S217C of full-length synaptotagmin I), SEQ ID NO: 1, labelled at cysteine-78 wit (Rattus norvegicus, UniProt P21707, S217C); conditions: 37° C., 2 mM CaCl2, pH 7.4
# T1 construct: GST (N, cleaved yes); linker between GST and C2A (part after the thrombin site) (N); made in house; host or cells: E. coli BL21
# From the text: (§1) The Rattus norvegicus synaptotagmin sequence was acquired using the NCBI Genbank service (sequence identity NM_001033680; NM_001033680.2) and the C2A domain was selected from this sequence. Three candidate cysteine mutants were selected at: Ser217, Gln154, Asn248 (see FIG. 2). Appropriate primers for mutagenesis were designed with the use of Quikchange Primer Design software. The C2A-containing pGEX-2T vector (GE Healthcare, Chalfont St Giles, UK) was isolated from BL21 E. coli cells and underwent a double restriction digest to confirm its identity. Mutagenesis was performed by the Stratagene QuikChange Site-Directed Mutagenesis kit. E. coli DH5α competent cells were transformed with the mutant plasmid by heat shock and the amplified vector then isolated and sequenced. Finally, E. coli BL21 cells were transformed with the vector by electroporation.
# (§2) S217C (position 78 of the C2A domain; position 217 of full-length Synaptotagmin I) mutant was selected as the best expressed site-directed mutant of C2A (C2Am).
# The mutant protein (C2Am) was covalently labeled with the fluorochrome Alexa Fluor 647 (AlxAF647), via a reaction between the cysteine-78 residue with the maleimide group of Alexa Fluor 647 C2 maleimide (Invitrogen). Briefly, the protein was reduced using 10 mM DTT for half an hour at room temperature. The protein was then washed in a 5-KDa vivaspin concentrator (Sartorius, Epsom, UK) in HNE buffer (20 mM HEPES, 100 mM NaCl, 5 mM EDTA, pH 7.4). This removed any residual DTT, which interferes with the conjugation reaction. The protein was kept at a concentration in the range 50-100 μM, and approximately a 10-fold molar excess of the fluorescent maleimide dye was added. The reaction was allowed to proceed on a magnetic stirrer at 4° C. overnight. Gel filtration was used to separate the modified protein from unreacted dye. Electrospray ionisation (ESI) mass spectrometry was used to confirm successful modification of the protein, which yielded a single species of approximately 17204 Da (C2Am-AlxAF647). ESI mass spectrometry of Annexin V-Alexa Fluor647™ was also performed. Briefly, samples were desalted using Millipore mC18 Ziptips and eluted with 50% MeCN/0.2% formic acid. Samples were analyzed by direct infusion at a flow rate of […] into a Waters QtofMicro, using 70% MeOH/0.2% formic acid as the mobile phase. Typical settings: capillary 3000V, cone 90V, capillary temperature 80° C., desolvation temperature 150° C., calibration by myoglobin and/or trypsinogen collected later in the same file. Deconvolution was conducted using Waters MassLynx MaxEnt 1 software (Waters Ltd, Manchester, UK). […]
# [2] = biological target: T2, Rattus norvegicus synaptotagmin I C2A domain variant C2Am, S78C (S217C of full-length synaptotagmin I), SEQ ID NO: 1 (Rattus norvegicus, UniProt P21707, S217C); conditions: 37° C., 2 mM CaCl2, pH 7.4
# T2 construct: GST (N, cleaved yes); linker between GST and C2A (part after the thrombin site) (N); made in house; host or cells: E. coli BL21
# From the text: as §1, §2
# (§3) Large multilamellar vesicles (LMVs) were prepared using three types of phospholipids (Phosphatidylserine, PS; Phosphatidylethanolamine, PE and Phosphatidylcholine, PC, Avanti Polar Lipids, Alabaster, Ala., USA). A sample of 2.6 μmol of phospholipids (PS:PE:PC mixture in chloroform; molar ratio 35:50:15) was dried under a gentle stream of nitrogen for half an hour and resuspended in 2.6 mL of C2A binding buffer (HBS=20 mM HEPES, 150 mM NaCl, pH 7.4, containing 2 mM CaCl2), by vigorous vortex mixing.
# Surface Plasmon Resonance (SPR) analysis was performed on L1 sensor chips using a Biacore T100 system (Biacore, GE Healthcare).
# In some experiments, the chip flow cells were washed with a 2-min pulse of a mixture of isopropanol/NaOH 50 mM (2:3 volume) at 5 μL, min^−1, and one coated with 5 μL of a suspension of SMVs containing 1 mM of phospholipids (at 1 μL min^−1), generating an average relative response of ca. 2,000 RU (relative units). Unbound multilamellar material was removed from the chip after SMV injection, by applying three 20s regeneration pulses of sodium hydroxide (50 mM, at 20 μL min^−1).
# In other experiments, the chip flow cells were washed with two, 30 s pulses of 20 mM, 3-[(3Cholamidopropyl)dimethylammonio]-1-propanesulfonate (CHAPS, at 30 μL min−1), then one flow cell (test) was coated with a suspension of test SMVs (PS:PE:PC) containing 1 mM of phospholipids (at 5 μL min−1), until an average relative response of ca. 5000 RU (relative units) was reached. Unbound multilamellar material was removed from the lipid bilayer after SMV injection, by applying two, 30 s pulses of sodium hydroxide (50 mM, at 30 μL min−1).
# Another flow cell was left uncoated as a control path. In some experiments, another flow cell (control) was coated with a suspension of control SMVs (PE:PC) containing 1 mM of phospholipids (at 5 μL min−1), until an average relative response of ca. 5000 RU (relative units). Control SMVs were prepared using PE and PC (molar ratio 77:23), and unbound material removed as above
# After a stable baseline had been achieved, the proteins were allowed to interact sequentially with the chip surface of the two flow cells of interest, for 2 min (association phase) and 1 min (dissociation phase) at 30 μL min^−1 or for 60 s (association phase) at 40 μL min^−1 at 37° C. The phospholipid bilayer was regenerated using a 15 s or 20 s pulse of HBS containing 10 mM NaEDTA, or (HBS, 20 mm EDTA, pH 7.4) at 40 μL min^−1, after each individual injection.
# (§4) Each protein solution was prepared automatically by the system at varying concentrations from 0 to 100 nM or from 5 nM to 75 nM using automated mix fraction preparation, and all injections were conducted in duplicate in C2A binding buffer at a flow rate of 30 μL min^−1 and 37° C. All concentrations were analyzed in duplicate. […]
# [3] = biological target: T3, Rattus norvegicus synaptotagmin I C2A domain, wild type (Rattus norvegicus, UniProt P21707); conditions: FIG. 8; thermal equilibrium SPR data, 1:1 Langmuir binding model, protein 5-95 nM, 37° C., 2 mM CaCl2, pH 7.4; read-out: dissociation constant (KD)
# T3 construct: GST (N); made in house; host or cells: E. coli BL21
# Method: as §3
# Surface Plasmon Resonance (SPR) analysis was performed on L1 sensor chips using a Biacore T100 system (Biacore, GE Healthcare). […]
# as §4, with “duplicate. Protein affinity for PS was evaluated by estimating the thermal equilibrium affinity dissociation constants (KD), obtained from the response values 4 s before the end of the association phase of the corresponding interaction sensorgrams (FIG. 8).” for “duplicate.”
# [4] = kinetic analysis of SPR data, read-out: KD (kinetics)
# T2 sequence (P21707 140-267 S217C): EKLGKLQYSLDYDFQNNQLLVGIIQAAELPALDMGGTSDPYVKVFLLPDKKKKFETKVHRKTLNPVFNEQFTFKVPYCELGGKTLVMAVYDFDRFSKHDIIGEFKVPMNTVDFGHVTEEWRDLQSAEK
# T1 sequence (P21707 140-267 S217C): as above
# T3 sequence (P21707 141-260 limits assumed): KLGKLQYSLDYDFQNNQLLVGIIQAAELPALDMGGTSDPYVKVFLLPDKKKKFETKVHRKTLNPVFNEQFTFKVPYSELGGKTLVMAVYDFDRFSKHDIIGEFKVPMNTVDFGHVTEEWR
substance,measurement,setting,value
Phosphatidylserine,Kd,"[1]; affinity analysis of SPR data, read-out: KD (affinity)",0.071 ± 0.0069 µM
same,ka (kinetics),[1]; kinetic analysis of SPR data,2.14e+06 M⁻¹ s⁻¹
same,kd (kinetics),[1]; kinetic analysis of SPR data,0.188 s⁻¹
same,Kd,[1]; [4],0.0879 µM
same,Kd,"[2]; FIG. 8, thermal equilibrium SPR data, 1:1 Langmuir binding model, protein 5-95 nM, read-out: dissociation constant (KD)",0.0494 ± 0.0049 µM
same,Kd,"[2]; affinity analysis of SPR data, duplicate injections, listed as PS, read-out: KD (affinity)",0.0554 ± 0.0035 µM
same,Kd,"[2]; affinity analysis of SPR data, duplicate injections, read-out: KD (affinity)",~0.055 µM and 0.0554 µM
same,ka (kinetics),[2]; kinetic analysis of SPR data,2.01e+06 M⁻¹ s⁻¹
same,kd (kinetics),[2]; kinetic analysis of SPR data,0.110 s⁻¹
same,Kd,[2]; [4],0.0542 µM
same,Kd,[3],0.0485 ± 0.0035 µM
